Experimental findings from ChEMBL document CHEMBL1149850, “Cytotoxic hydrolyzable tannins from Balanophora japonica” (J Nat Prod, 2008) are described below.

Molecules are shown by their SMILES.

For this assay, the system named is HepG2. Put plainly: Cytotoxicity against human HepG2 cells. The format is functional, cell-based.

As a reminder, the IC50 is the concentration that inhibits the measured activity by half. The low end stands for greater potency in that assay, the high end for weaker potency in that assay. In turn, `O=C(/C=C/c1ccc(O)c(O)c1)O[C@@H]1O[C@H](COC(=O)[C@H]2CC(=O)c3oc(=O)c4cc(O)c(O)c(O)c4c32)[C@@H](O)[C@H](O)[C@H]1O` [BALANOPHOTANNIN D] had an IC50 of 17.4 µM. In the case of `O=C(O[C@@H]1O[C@H](COC(=O)[C@H]2CC(=O)c3oc(=O)c4cc(O)c(O)c(O)c4c32)[C@@H](O)[C@H](OC(=O)c2cc(O)c(O)c(O)c2)[C@H]1O)c1cc(O)c(O)c(O)c1` [BALANOPHOTANNIN E] it was 4.22 µM.

For the molecule `O=C(O)C[C@@H]1C(=O)O[C@H]2[C@H](O)[C@@H](O)[C@H](OC(=O)/C=C/c3ccc(O)c(O)c3)O[C@@H]2COC(=O)c2cc(O)c(O)c3c2[C@H]1C(=O)O3` [BALANOPHOTANNIN F], half-maximal inhibition (IC50) was put at 48.4 µM. The value for `O=C(O)C[C@@]12Oc3c(O)c(O)cc(C(=O)OC[C@H]4O[C@@H](OC(=O)/C=C/c5ccc(O)c(O)c5)[C@H](O)[C@@H](O)[C@@H]4O)c3[C@@H]1[C@H](C(=O)O)OC2=O` [BALANOPHOTANNIN G] was 18 µM; that for `O=c1[nH]cc(F)c(=O)[nH]1` [FLUOROURACIL] was 18.7 µM.
